Among the data in patent US20010056184A1, “Pipecolinic acid derivatives, method of manufacturing the same and therapeutic agents containing these compounds” (priority 2000, published 2001) are IC50 and inhibition values, retold here.

Type in all cases: biochemical
Assay [1] deals with T1, human fibroblasts derived MMP-1 (type I collagenase) (Homo sapiens, UniProt P03956).
T1 construct: human fibroblasts derived MMP-1 (Yagai Co. Ltd.) as enzyme; purchased Yagai Co. Ltd; host or cells: human fibroblasts
T1 sequence (P03956 100-469): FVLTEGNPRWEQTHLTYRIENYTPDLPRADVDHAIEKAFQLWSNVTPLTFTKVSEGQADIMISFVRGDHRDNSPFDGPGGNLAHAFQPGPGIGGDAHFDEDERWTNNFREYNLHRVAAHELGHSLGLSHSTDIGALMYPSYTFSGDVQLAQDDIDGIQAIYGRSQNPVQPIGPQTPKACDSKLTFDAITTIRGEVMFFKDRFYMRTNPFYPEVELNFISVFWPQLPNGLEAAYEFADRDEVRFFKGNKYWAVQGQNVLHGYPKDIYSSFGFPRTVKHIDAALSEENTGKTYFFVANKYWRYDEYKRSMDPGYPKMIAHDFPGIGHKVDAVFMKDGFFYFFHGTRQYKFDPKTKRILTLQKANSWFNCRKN
In words: MMP-1 (type I collagenase) inhibitory activities, fluorogenic substrate enzyme assay. The settings on record: for IC50: 37° C., 4 h, substrate 10 μM; for inhibition at 10 µM: at 10^−5M, NE means no effect, read-out: MMP-1 inhibition percent. As for the experimental part:
Examination 1: MMP-1 (type I collagenase) inhibitory activities.
Inhibitory activities of MMP-1 (type I collagenase) activities were estimated by enzyme assay using human fibroblasts derived MMP-1 (Yagai Co. Ltd.) as enzyme, and MOCAc-Pro-Leu-Gly-Leu-A2pr(Dnp)-Ala-Arg-NH2 (Peptide Research Center, 3163-v) as substrate. Thus, MMP-1 (0.01 U/ml), test compound (10^−10˜10^−5 M), and the substrate (10 μM) were incubated in 50 mM Tris-HCl buffer (pH 7.4) containing 0.2M NaCl, 10 mM CaCl2, 0.02% NaN3, and 0.05% Brij 35 at 37° C. for 4 h. The reaction was stopped by adding of 4 volumes of sodium acetate buffer (pH 4.0), and the degradation of substrate was calculated by measurement with a fluorescence intensity (λ ex 328 nm, λ em 393 nm). Inhibition of degradation of substrate in the presence of compound was determined by comparison with the degradation percent of substrate in the absence of compound, and concentration of 50% inhibition (IC50 value) was calculated.

Assay [2] concerns the target T2, MMP-2 (gelatinase A) (Homo sapiens, UniProt P08253).
T2 construct: made in house; host or cells: COS-1 cells (secreted into culture medium)
T2 sequence (P08253 110-660): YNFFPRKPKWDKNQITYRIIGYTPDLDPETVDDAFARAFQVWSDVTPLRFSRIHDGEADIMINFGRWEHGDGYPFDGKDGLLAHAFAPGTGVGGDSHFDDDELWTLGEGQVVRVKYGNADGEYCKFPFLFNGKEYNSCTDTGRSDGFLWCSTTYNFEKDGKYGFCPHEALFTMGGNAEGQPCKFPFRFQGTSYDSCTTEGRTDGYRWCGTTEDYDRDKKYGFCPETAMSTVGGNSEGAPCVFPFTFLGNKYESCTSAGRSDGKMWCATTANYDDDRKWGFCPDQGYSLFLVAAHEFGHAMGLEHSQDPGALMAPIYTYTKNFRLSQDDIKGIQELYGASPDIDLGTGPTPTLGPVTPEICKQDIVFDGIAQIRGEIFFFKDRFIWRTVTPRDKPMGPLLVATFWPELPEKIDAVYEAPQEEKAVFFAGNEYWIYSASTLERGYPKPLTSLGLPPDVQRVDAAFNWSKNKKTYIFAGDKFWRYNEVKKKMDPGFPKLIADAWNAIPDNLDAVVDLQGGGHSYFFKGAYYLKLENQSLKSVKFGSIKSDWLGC
In words: MMP-2 (gelatinase A) inhibitory activities, fluorogenic substrate enzyme assay. The settings on record: 42° C., 2 h, substrate 10 μM. As for the experimental part:
(§1) Examination 2: MMP-2 (gelatinase A) and MMP-9 (gelatinase B) inhibitory activities.
(§2) Pro MMP-2 was obtained from culture medium separated from human pro-MMP-2 cDNA tranfected COS-1 cells. Pro MMP-2 activated by 1 mM (4-aminophenyl) mercury acetic acid and MMP-9, derived human fibrosarcome (Yagai Co. Ltd.), were used as enzyme respectively. Inhibition of both enzyme activities were estimated by enzyme assay using MOCAc-Pro-Leu-Gly-Leu-A2pr(Dnp)-Ala-Arg-NH2 (Peptide Research Center, 3163-v) as substrate. Thus, MMP-2 or MMP-9 (0.01 U/ml), test compound (several concentrations), and the substrate (10 μM) were incubated in 50 mM Tris - HCl buffer (pH 7.4) containing 0.2M NaCl, 10 mM CaCl2, 0.02% NaN3, and 0.05% Brij 35 at 42° C. for 2 h (MMP-2), 3 h (MMP-9) respectively. Inhibition of degradation of substrate in the presence of compound was determined by comparison with the degradation of substrate in the absence of compound, and concentration of 50% inhibition (IC50 value) was calculated.

Assay [3] deals with T3, MMP-9 (gelatinase B) (Homo sapiens, UniProt P14780).
T3 construct: MMP-9, derived human fibrosarcome (Yagai Co. Ltd.), were used as enzyme respectively; purchased Yagai Co. Ltd; host or cells: human fibrosarcoma
T3 sequence (P14780 94-707): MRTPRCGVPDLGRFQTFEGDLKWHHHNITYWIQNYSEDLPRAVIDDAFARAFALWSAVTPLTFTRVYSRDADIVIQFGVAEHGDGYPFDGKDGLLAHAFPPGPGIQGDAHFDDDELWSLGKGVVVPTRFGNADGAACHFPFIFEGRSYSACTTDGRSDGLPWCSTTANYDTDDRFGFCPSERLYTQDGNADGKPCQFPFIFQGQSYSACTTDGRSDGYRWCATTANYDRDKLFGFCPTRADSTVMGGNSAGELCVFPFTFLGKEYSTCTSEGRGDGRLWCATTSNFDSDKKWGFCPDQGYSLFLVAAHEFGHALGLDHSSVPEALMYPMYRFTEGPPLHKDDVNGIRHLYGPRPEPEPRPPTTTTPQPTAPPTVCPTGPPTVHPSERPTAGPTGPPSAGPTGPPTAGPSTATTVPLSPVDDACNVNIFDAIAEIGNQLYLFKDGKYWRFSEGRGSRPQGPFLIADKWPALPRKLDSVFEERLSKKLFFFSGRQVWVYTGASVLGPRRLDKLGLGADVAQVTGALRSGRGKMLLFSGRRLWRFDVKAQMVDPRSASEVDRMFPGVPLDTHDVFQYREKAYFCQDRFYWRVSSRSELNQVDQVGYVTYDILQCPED
In words: MMP-9 (gelatinase B) inhibitory activities, fluorogenic substrate enzyme assay. The note with it: for IC50: 42° C., 3 h, substrate 10 μM. As for the experimental part: as §1, §2

The target in assay [4] is T4, Δ MT1-MMP (Δ MMP-14) (Homo sapiens, UniProt P50281).
T4 construct: ProMT1-MMP cDNA encoded extracellular domain of pro Δ MT1-MMP was tranfected E. coli BL21DE3; made in house; host or cells: E. coli BL21DE3 (inclusion bodies, 8M urea, ion exchange)
In words: Δ MT1-MMP (Δ MMP-14) inhibitory activities, fluorogenic substrate enzyme assay. The note with it: 37° C., 30 min, substrate 10 μM; read-out: ΔMMP-14 IC50. From the text: Examination 3: Δ MT1-MMP (Δ MMP-14) inhibitory activities.
ProMT1-MMP cDNA encoded extracellular domain of pro Δ MT1-MMP was tranfected E. coli BL21DE3, pro Δ MT1-MMP collected as inclusion body was solved using 8M urea, and it was pulified by ion exchenge column chlomatography. Inhibition of enzyme activities were estimated by enzyme assay using activated Δ MT1-MMP, obtained from activation of pro Δ MT1-MMP by 10 μ/ml tripsine, and MOCAc-Pro-Leu-Gly-Leu-A2pr(Dnp)-Ala-Arg-NH2 (Peptide Research Center, 3163-v) as substrate. Thus, Δ MT1-MMP, test compound (several concentrations), and the substrate (10 μM) were incubated in 50 mM Tris - HCl buffer (pH 7.4) containing 0.2M NaCl, 10 mM CaCl2, 0.02% NaN3, 0.05% Brij 35, and 10 μM leuipeputine at 37° C. for 30 min. The reaction was stopped by adding of 4 volumes of sodium acetate buffer (pH 4.0), and the degradation of substrate was calculated by measurement with a fluorescence intensity (λ ex 328 nm, λ em 393 nm). Inhibition of degradation of substrate in the presence of compound was determined by comparison with the degradation of substrate in the absence of compound, and concentration of 50% inhibition (IC50 value) was calculated.

In the case of `COc1ccc(-c2ccc(S(=O)(=O)N3CC[C@@H](NC(=O)c4ccc([N+](=O)[O-])cc4)C[C@@H]3C(=O)NO)cc2)cc1` [Compound 75, (2R, 4R)-2-Hydroxyaminocarbonyl-1-[4-(4-methoxyphenyl)benzenesulfonyl]-4-(4-nitrobenzoylamino)-piperidine], the half-maximal inhibitory concentration (IC50) (usually the midpoint of a concentration-inhibition curve) in assay [1] stood at 2500 nM; in assay [2], 15 nM; in assay [3], 16 nM; in assay [4], 890 nM.

For `COc1ccc(-c2ccc(S(=O)(=O)N3CC[C@@H](NC(=O)c4c[nH]c5ccccc45)C[C@@H]3C(=O)NO)cc2)cc1` [Compound 76, (2R, 4R)-2-Hydroxyaminocarbonyl-4-(3-indolecarbonylamino)-1-[4-(4-methoxyphenyl)benzenesulfonyl]-piperidine], the inhibition (in general, the relative decrease from the control value, in per cent) at 10 µM in assay [1] came to 12.9%. The results for the IC50 in assay [2], in assay [3] and in assay [4] were 12 nM, 21 nM and 96 nM, respectively.

Regarding `CC(=O)N[C@@H]1CCN(S(=O)(=O)c2ccc(-c3ccc(Cl)cc3)cc2)[C@@H](C(=O)NO)C1` [Compound 72, (2R, 4R)-4-Acetylamino-1-[4-(4-chlorohenyl)benzenesulfonyl]-2-hydroxyaminocarbonyl-piperidine], the IC50 is 37 nM in assay [1], 3 nM in assay [2], 1.1 nM in assay [3] and 23 nM in assay [4].

`COc1ccc(-c2cccc(S(=O)(=O)N3CC[C@@H](NC(=O)CCC(C)C)C[C@@H]3C(=O)NO)c2)cc1` [Compound 52, (2R, 4R)-2-Hydroxyaminocarbonyl-1-[3-(4-methoxyphenyl)benzenesulfonyl]-4-(4-methylpentanoylamino)-piperidine]: the inhibition at 10 µM in assay [1] came to 48.9%. Further, the IC50 worked out at 210 nM in assay [2], 420 nM in assay [3] and 79 nM in assay [4].

With `CC(C)CCC(=O)N[C@@H]1CCN(S(=O)(=O)c2cccs2)[C@@H](C(=O)NO)C1` [Compound 51, (2R, 4R)-2-Hydroxyaminocarbonyl-4-(4-methylpentanoylamino)-1-(2-thiophenesulfonyl)-piperidine], the concentration for half-maximal inhibition (IC50) in assay [1] came to 6.5 nM; in assay [2], 80 nM; in assay [3], 75 nM; in assay [4], 31 nM.

Regarding `COc1ccc(-c2ccc(S(=O)(=O)N3CC[C@H](NC(C)=O)C[C@@H]3C(=O)NO)cc2)cc1` [Compound 82, (2R, 4S)-4-Acetylamino-2-hydroxyaminocarbonyl-1-[4-(4-methoxyphenyl)benzenesulfonyl]-piperidine], the inhibition at 10 µM in assay [1] turned out to be 0%. In addition, the IC50 in assay [2] worked out at 740 nM; in assay [3] it was 440 nM; in assay [4], 1300 nM.

As for `CC(C)CCC(=O)N[C@@H]1CCN(S(=O)(=O)c2cccc(-c3ccc(O)cc3)c2)[C@@H](C(=O)NO)C1` [Compound 53, (2R, 4R)-2-Hydroxyaminocarbonyl-1-[3-(4-hydroxyphenyl)benzenesulfonyl]-4-(4-methylpentanoylamino)-piperidine], in assay [1], the inhibition at 10 µM was 53%. For the same compound, the results for the IC50 in assay [2], in assay [3] and in assay [4] were 960 nM, 6900 nM and 2000 nM, respectively.

With `O=C(N[C@@H]1CCN(S(=O)(=O)c2ccc(-c3ccc(Cl)cc3)cc2)[C@@H](C(=O)NO)C1)c1ccccn1` [Compound 74, (2R, 4R)-1-[4-(4-Chlorophenyl)benzenesulfonyl]-2-hydroxyaminocarbonyl-4-(2-pyridinecarbonylamino)-piperidine], the inhibition at 10 µM in assay [1] was found to be 48.9%. In addition, the IC50 is 5.2 nM in assay [2], 13 nM in assay [3] and 74 nM in assay [4].

On to `COc1ccc(OCCCCC(=O)N[C@@H]2CCN(S(=O)(=O)c3ccc(OC)cc3)[C@@H](C(=O)NO)C2)cc1` [Compound 46, (2R, 4R)-2-Hydroxyaminocarbonyl-1-(4-methoxybenzenesulfonyl)-4-[5-(4-methoxyphenoxy)pentanoylamino]-piperidine], for which the IC50 in assay [1] is 7600 nM; in assay [2], 1.5 nM; in assay [3], 0.88 nM; in assay [4] it was 4.3 nM.

`COc1ccc(-c2ccc(S(=O)(=O)N3CC[C@@H](NC(=O)c4ccccc4)C[C@@H]3C(=O)NO)cc2)cc1` [Compound 59, (2R, 4R)-4-Benzoylamino-2-hydroxyaminocarbonyl-1-[4-(4-methoxyphenyl)benzenesulfonyl]-piperidine]: the inhibition at 10 µM in assay [1] is 57.6%. The figures for the IC50 in assay [2], in assay [3] and in assay [4] were 180 nM, 11 nM and 95 nM, respectively.

Turning to `CC(C)CCC(=O)N[C@@H]1CCN(S(=O)(=O)c2ccccc2-c2ccc(O)cc2)[C@@H](C(=O)NO)C1` [Compound 55, (2R, 4R)-2-Hydroxyaminocarbonyl-1-[2-(4-hydroxyphenyl)benzenesulfonyl]-4-(4-methylpentanoylamino)-piperidine], the inhibition at 10 µM in assay [1] turned out to be 29.5%; in assay [3] (at 10^−5M, read-out: MMP-9 inhibition percent) it was 34.8%. The IC50 in assay [2] came to 2400 nM; in assay [4], 3000 nM.

Consider `CC(C)CCC(=O)N[C@@H]1CCN(S(=O)(=O)c2ccc(-c3ccc(O)cc3)cc2)[C@@H](C(=O)NO)C1` [Compound 57, (2R, 4R)-2-Hydroxyaminocarbonyl-1-[4-(4-hydroxyphenyl)benzenesulfonyl]-4-(4-methylpentanoylamino) piperidine], for which the IC50 in assay [1] stood at 460 nM; in assay [2] it was 1.8 nM; in assay [3], 11 nM; in assay [4], 100 nM.
